Source: PMC7960626, “Phase I study assessing the mass balance, pharmacokinetics, and excretion of [^14C]-pevonedistat, a NEDD8-activating enzyme inhibitor in patients with advanced solid tumors” (Investigational New Drugs, 2020)
Where two headings read alike, the source gives them in different places.

Experiments:
[1] = Safety (TEAEs) of pevonedistat days 1, 3, 5 plus carboplatin/paclitaxel or docetaxel in 3-week cycles (part B); format: in vivo, human; conditions: for On-study deaths, patients: part B, Total (N = 7)
Procedure: (§1) This was a two-part (A and B), open-label, multicenter, mass balance, distribution, metabolism, excretion (DME) study in adult patients with advanced solid tumors. In part A, patients received a single IV infusion of [^14C]-pevonedistat 25 mg/m^2 (containing approximately 60–85 µCi, or 2.22–3.145 MBq, of total radioactivity) at a single center (Duna Medical Center, Budapest, Hungary). Patients were required to stay at the part A study site for approximately 8 days or until the discharge criteria were met, with a maximum estimated confinement period of 9–14 days. Upon completion of part A, patients had the option to participate in part B at Medical Center Hungarian Defense Forces, Budapest, Hungary. In part B, patients received treatment in 3-week cycles with either: pevonedistat 20 mg/m^2 on days 1, 3, and 5 plus carboplatin AUC5 and paclitaxel 175 mg/m^2 on day 1; or pevonedistat 25 mg/m^2 on days 1, 3, and 5 plus docetaxel 75 mg/m^2 on day 1. Treatment was administered for 12 cycles or until discontinuation criteria were met.
(§2) Blood samples were collected for total radioactivity and PK assessments in whole blood and plasma at prespecified time points (pre dose [within 1 h before the start of the pevonedistat infusion], end of infusion, then 0.5, 1, 2, 3, 4, 8, 12, 24, 48, 72, 96, 120, 144 and 168 hours post dose). Complete urinary and fecal output were collected for analysis of PK (urine) and total radioactivity (urine and feces) throughout the confinement period until discharge criteria were met. Bioanalytical assay methods are shown in the Supplementary Methods. Safety was assessed by incidence and severity of TEAEs, vital signs, physical examinations, electrocardiograms, and clinical laboratory tests, and toxicities were graded according to the National Cancer Institute Common Terminology Criteria for Adverse Events (NCI CTCAE), version 4.03. In part B, disease assessments were conducted using radiological evaluations (computed tomography [CT] scan or magnetic resonance imaging [MRI], as clinically indicated).
PK data were summarized using descriptive statistics, and the PK and mass balance parameters described in Supplementary Table S1 were calculated by non-compartmental analysis for each individual patient. Safety was assessed in all patients who received at least one dose of pevonedistat, and TEAEs were coded according to the Medical Dictionary for Regulatory Activities (MedDRA), version 20.0. Analysis of efficacy in part B was descriptive; disease response was assessed in all patients who received at least one dose of pevonedistat, had measurable disease (per entry criteria for part B), and had at least one post-baseline disease assessment. Response assessment was done by the investigator using Response Evaluation Criteria in Solid Tumors (RECIST) version 1.1. SAS version 9.4 was used for all statistical analyses.

[2] = test system: advanced solid tumors; design: method as in PMID 29781056; conditions: cited from earlier work
[3] = test system: advanced solid tumors; assay: Disease response by RECIST version 1.1 (part B); format: in vivo, human; conditions: 7 patients evaluable, with carboplatin/paclitaxel or docetaxel
Procedure: as §1
as §2, with “In part B, disease assessments were conducted using radiological evaluations (computed tomography [CT] scan or magnetic resonance imaging [MRI], as clinically indicated).” left out
PK data were summarized using descriptive statistics, and the PK and mass balance parameters described in Supplementary Table S1 were calculated by non-compartmental analysis for each individual patient. […]

[4] = human, in vivo, 12 3-week cycles
[5] = in combination with carboplatin plus paclitaxel

NS(=O)(=O)OC[C@@H]1C[C@@H](n2ccc3c(N[C@H]4CCc5ccccc54)ncnc32)C[C@@H]1O [Pevonedistat]
Abdominal distension, All Grades ([1]; human, in vivo): 1 (14.3) n (%) | Abdominal distension, Grade ≥ 3 ([1]; human, in vivo): 0 n (%) | Abdominal pain upper, All Grades ([1]; human, in vivo): 1 (14.3) n (%) | Abdominal pain upper, Grade ≥ 3 ([1]; human, in vivo): 0 n (%) | Abdominal pain, All Grades ([1]; human, in vivo): 1 (14.3) n (%) | Abdominal pain, Grade ≥ 3 ([1]; human, in vivo): 0 n (%) | Alopecia, All Grades ([1]; human, in vivo): 1 (14.3) n (%) | Alopecia, Grade ≥ 3 ([1]; human, in vivo): 0 n (%) | Arthralgia, All Grades ([1]; human, in vivo): 1 (14.3) n (%) | Arthralgia, Grade ≥ 3 ([1]; human, in vivo): 0 n (%) | Asthenia, All Grades ([1]; human, in vivo): 3 patients (42.9%) n (%) | Back pain, All Grades ([1]; human, in vivo): 1 (14.3) n (%) | Back pain, Grade ≥ 3 ([1]; human, in vivo): 0 n (%) | Blood bilirubin increased, All Grades ([1]; human, in vivo): 1 (14.3) n (%) | Blood bilirubin increased, Grade ≥ 3 ([1]; human, in vivo): 0 n (%) | Blood creatinine increased, All Grades ([1]; human, in vivo): 1 (14.3) n (%) | Blood creatinine increased, Grade ≥ 3 ([1]; human, in vivo): 0 n (%) | Blood urea increased, All Grades ([1]; human, in vivo): 1 (14.3) n (%) | Blood urea increased, Grade ≥ 3 ([1]; human, in vivo): 0 n (%) | Bone pain, All Grades ([1]; human, in vivo): 1 (14.3) n (%) | Bone pain, Grade ≥ 3 ([1]; human, in vivo): 0 n (%) | Chest pain, All Grades ([1]; human, in vivo): 1 (14.3) n (%) | Chest pain, Grade ≥ 3 ([1]; human, in vivo): 0 n (%) | Chills, All Grades ([1]; human, in vivo): 1 (14.3) n (%) | Chills, Grade ≥ 3 ([1]; human, in vivo): 0 n (%) | Conjunctival hemorrhage, All Grades ([1]; human, in vivo): 1 (14.3) n (%) | Conjunctival hemorrhage, Grade ≥ 3 ([1]; human, in vivo): 0 n (%) | Diarrhea, All Grades ([1]; human, in vivo): 3 patients (42.9%) n (%) | Dyspnea, All Grades ([1]; human, in vivo): 1 (14.3) n (%) | Dyspnea, Grade ≥ 3 ([1]; human, in vivo): 0 n (%) | Edema peripheral, All Grades ([1]; human, in vivo): 1 (14.3) n (%) | Edema peripheral, Grade ≥ 3 ([1]; human, in vivo): 0 n (%) | Fibrosarcoma, All Grades ([1]; human, in vivo): 1 (14.3) n (%) | Fibrosarcoma, Grade ≥ 3 ([1]; human, in vivo): 1 (14.3) n (%) | General physical health deterioration, All Grades ([1]; human, in vivo): 1 (14.3) n (%) | General physical health deterioration, Grade ≥ 3 ([1]; human, in vivo): 1 (14.3) n (%) | Grade ≥ 3 drug-related decreased platelet count ([1]; human, in vivo): 1 patient | Grade ≥ 3 drug-related increased ALT and AST ([1]; human, in vivo): 1 patient | Leukocytosis, All Grades ([1]; human, in vivo): 1 (14.3) n (%) | Leukocytosis, Grade ≥ 3 ([1]; human, in vivo): 0 n (%) | Leukopenia, All Grades ([1]; human, in vivo): 1 (14.3) n (%) | Leukopenia, Grade ≥ 3 ([1]; human, in vivo): 0 n (%) | Mueller’s mixed tumor, All Grades ([1]; human, in vivo): 1 (14.3) n (%) | Mueller’s mixed tumor, Grade ≥ 3 ([1]; human, in vivo): 0 n (%) | Nausea, All Grades ([1]; human, in vivo): 3 patients (42.9%) n (%) | Pain, Grade ≥ 3 ([1]; human, in vivo): 0 n (%) | Peripheral venous disease, All Grades ([1]; human, in vivo): 1 (14.3) n (%) | Peripheral venous disease, Grade ≥ 3 ([1]; human, in vivo): 0 n (%) | Platelet count decreased, All Grades ([1]; human, in vivo): 1 (14.3) n (%) | Platelet count decreased, Grade ≥ 3 ([1]; human, in vivo): 1 (14.3) n (%) | Pneumonia, All Grades ([1]; human, in vivo): 1 (14.3) n (%) | Pneumonia, Grade ≥ 3 ([1]; human, in vivo): 1 (14.3) n (%) | Pyrexia, All Grades ([1]; human, in vivo): 2 (28.6) n (%) | Pyrexia, Grade ≥ 3 ([1]; human, in vivo): 0 n (%) | Rash, All Grades ([1]; human, in vivo): 1 (14.3) n (%) | Rash, Grade ≥ 3 ([1]; human, in vivo): 0 n (%) | Serious TEAEs, patients ([1]; human, in vivo): Three patients (42.9%) n (%) | Spinal compression fracture, All Grades ([1]; human, in vivo): 1 (14.3) n (%) | Spinal compression fracture, Grade ≥ 3 ([1]; human, in vivo): 0 n (%) | Swelling, All Grades ([1]; human, in vivo): 1 (14.3) n (%) | Swelling, Grade ≥ 3 ([1]; human, in vivo): 0 n (%) | TEAEs, patients ([1]; human, in vivo): 7 n (%) | TEAEs: Drug-related (any drug of the combination), patients ([1]; human, in vivo): 6 patients (85.7%) n (%) | TEAEs: Grade ≥ 3, patients ([1]; human, in vivo): Four patients (57.1%) n (%) | TEAEs: Grade ≥ 3 drug-related, patients ([1]; human, in vivo): 2 n (%) | Upper respiratory tract infection, All Grades ([1]; human, in vivo): 1 (14.3) n (%) | Upper respiratory tract infection, Grade ≥ 3 ([1]; human, in vivo): 0 n (%) | Vomiting, All Grades ([1]; human, in vivo): 4 patients (57.1%) n (%) | Weight decreased, All Grades ([1]; human, in vivo): 1 (14.3) n (%) | Weight decreased, Grade ≥ 3 ([1]; human, in vivo): 0 n (%) | ALT increased, All Grades [1, 4]: 2 (28.6) n (%) | ALT increased, Grade ≥ 3 [1, 4]: 1 (14.3) n (%) | AST increased, All Grades [1, 4]: 2 (28.6) n (%) | AST increased, Grade ≥ 3 [1, 4]: 1 (14.3) n (%) | Anemia, All Grades [1, 4]: 2 (28.6) n (%) | Anemia, Grade ≥ 3 [1, 4]: 0 n (%) | Asthenia, All Grades [1, 4]: 3 (42.9) n (%) | Asthenia, Grade ≥ 3 [1, 4]: 0 n (%) | Diarrhea, All Grades [1, 4]: 3 (42.9) n (%) | Diarrhea, Grade ≥ 3 [1, 4]: 0 n (%) | Fatigue, All Grades [1, 4]: 2 (28.6) n (%) | Fatigue, Grade ≥ 3 [1, 4]: 0 n (%) | Nausea, All Grades [1, 4]: 3 (42.9) n (%) | Nausea, Grade ≥ 3 [1, 4]: 0 n (%) | Pain, All Grades [1, 4]: 2 (28.6) n (%) | Serious TEAEs, patients [1, 4]: 3 (42.9) n (%) | Serious TEAEs: Drug-related, patients [1, 4]: 0 n (%) | Serious TEAEs: Resulting in study discontinuation, patients [1, 4]: 1 (14.3) n (%) | TEAEs, patients [1, 4]: 7 (100.0) n (%) | TEAEs: Drug-related (any drug of the combination), patients [1, 4]: 6 (85.7) n (%) | TEAEs: Grade ≥ 3, patients [1, 4]: 4 (57.1) n (%) | TEAEs: Grade ≥ 3 drug-related, patients [1, 4]: 2 (28.6) n (%) | TEAEs: Resulting in study drug discontinuation, patients [1, 4]: 1 (14.3) n (%) | Thrombocytopenia, All Grades [1, 4]: 2 (28.6) n (%) | Thrombocytopenia, Grade ≥ 3 [1, 4]: 0 n (%) | Vomiting, All Grades [1, 4]: 4 (57.1) n (%) | Vomiting, Grade ≥ 3 [1, 4]: 0 n (%) | Oral herpes, All Grades ([1]; human, in vivo, po): 1 (14.3) n (%) | Oral herpes, Grade ≥ 3 ([1]; human, in vivo, po): 0 n (%) | Serious TEAEs: Drug-related, patients ([1]; in vivo): none of which were considered related to treatment | On-study deaths, patients [1]: 2 (28.6) n (%) | On-study deaths, patients ([1]; listed as pevonedistat): Two | maximum tolerated dose (MTD) [2, 5]: 20 mg/m^2 | overall response rate [ORR] [2, 5]: 35% | maximum tolerated dose (MTD) ([2]; in combination with docetaxel): 25 mg/m^2 | overall response rate [ORR] ([2]; in combination with docetaxel): 16% | best response of partial response [3]: One | best response of stable disease [3]: 5 patients | progressive disease [3]: remaining patient
